# In ChEMBL document CHEMBL1201862, “PubChem BioAssay data set” (2004):
# Activity calls are given as the source filed them. For most assays here, no stated cut-off is given here; in the data, actives have a measured EC50 and inactives only a lower limit.
# Assays:
# [1] = molecular target: T1, Protein RecA (Mycobacterium tuberculosis, UniProt P9WHJ3); assay: Fluorescence Cell-Free Homogeneous Dose Retest to Identify Inhibitors of RecA-Intein Splicing Activity. [Related pubchem assays (depositor defined):AID2097, AID2223, AID489010, AID492950]; assay type: functional
# T1 sequence (P9WHJ3 whole entry): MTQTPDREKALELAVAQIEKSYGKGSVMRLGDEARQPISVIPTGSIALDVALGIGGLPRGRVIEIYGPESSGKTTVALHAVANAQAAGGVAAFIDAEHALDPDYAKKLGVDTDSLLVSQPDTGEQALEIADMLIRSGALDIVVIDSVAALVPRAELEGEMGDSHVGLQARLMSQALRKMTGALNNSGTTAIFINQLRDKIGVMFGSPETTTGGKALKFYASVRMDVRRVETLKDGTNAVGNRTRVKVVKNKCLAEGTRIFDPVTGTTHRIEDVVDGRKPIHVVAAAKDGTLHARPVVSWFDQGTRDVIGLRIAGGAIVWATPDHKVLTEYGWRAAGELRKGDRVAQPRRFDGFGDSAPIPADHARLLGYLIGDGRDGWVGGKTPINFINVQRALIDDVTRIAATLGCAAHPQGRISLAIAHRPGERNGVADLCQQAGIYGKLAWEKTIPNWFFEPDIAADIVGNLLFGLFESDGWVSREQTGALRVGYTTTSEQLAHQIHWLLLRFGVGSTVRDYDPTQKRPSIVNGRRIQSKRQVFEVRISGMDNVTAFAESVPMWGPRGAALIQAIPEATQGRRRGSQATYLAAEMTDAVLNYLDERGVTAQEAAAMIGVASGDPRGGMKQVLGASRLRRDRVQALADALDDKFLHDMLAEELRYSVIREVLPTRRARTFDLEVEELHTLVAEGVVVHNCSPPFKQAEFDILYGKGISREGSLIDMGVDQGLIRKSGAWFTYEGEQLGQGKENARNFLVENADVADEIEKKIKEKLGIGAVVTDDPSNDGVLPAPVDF
# [2] = molecular target: T2, Replicative DNA helicase DnaB (Mycobacterium tuberculosis, UniProt P9WMR3); assay: DnaB intein splicing inhibitors, dose response, biochemical, cell-free fluorescence (AID 449749); assay type: functional
# T2 sequence (P9WMR3 whole entry): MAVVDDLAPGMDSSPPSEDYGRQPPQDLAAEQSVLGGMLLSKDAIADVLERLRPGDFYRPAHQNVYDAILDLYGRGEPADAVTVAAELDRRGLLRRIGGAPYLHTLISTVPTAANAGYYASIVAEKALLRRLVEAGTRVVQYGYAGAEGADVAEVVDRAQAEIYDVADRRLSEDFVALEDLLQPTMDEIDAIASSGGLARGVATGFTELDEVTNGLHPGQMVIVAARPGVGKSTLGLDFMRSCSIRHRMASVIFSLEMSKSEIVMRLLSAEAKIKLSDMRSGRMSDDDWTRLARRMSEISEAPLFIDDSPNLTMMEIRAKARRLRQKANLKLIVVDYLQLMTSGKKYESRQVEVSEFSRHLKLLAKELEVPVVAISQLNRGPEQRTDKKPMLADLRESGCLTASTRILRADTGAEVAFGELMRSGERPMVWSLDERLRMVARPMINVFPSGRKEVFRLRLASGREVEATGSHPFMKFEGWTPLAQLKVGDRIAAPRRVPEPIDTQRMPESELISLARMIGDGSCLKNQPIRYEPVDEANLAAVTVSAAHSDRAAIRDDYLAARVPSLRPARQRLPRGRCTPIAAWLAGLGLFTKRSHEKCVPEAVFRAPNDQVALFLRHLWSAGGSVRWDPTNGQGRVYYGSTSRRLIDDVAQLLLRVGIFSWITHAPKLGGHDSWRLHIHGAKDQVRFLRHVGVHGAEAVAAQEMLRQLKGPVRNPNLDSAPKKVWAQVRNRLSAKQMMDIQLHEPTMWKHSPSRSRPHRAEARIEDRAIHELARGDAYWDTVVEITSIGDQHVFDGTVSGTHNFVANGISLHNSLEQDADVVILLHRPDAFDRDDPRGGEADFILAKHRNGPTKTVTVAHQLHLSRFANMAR
# [3] = molecular target: T3, Heat shock factor protein 1 (Mus musculus, UniProt P38532); assay: inhibition of MG132-induced HSE-luciferase signal, confirmation, cell-based, NIH3T3, luminescence, dose retest (AID 2382); assay type: functional;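 further: NIH3T3 fibroblasts with HSF1-driven luciferase reporter stressed by proteasome inhibitor MG132; luminescence from HSF1-driven luciferase expression after 8 hours of MG132 stress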
# T3 sequence (P38532 whole entry): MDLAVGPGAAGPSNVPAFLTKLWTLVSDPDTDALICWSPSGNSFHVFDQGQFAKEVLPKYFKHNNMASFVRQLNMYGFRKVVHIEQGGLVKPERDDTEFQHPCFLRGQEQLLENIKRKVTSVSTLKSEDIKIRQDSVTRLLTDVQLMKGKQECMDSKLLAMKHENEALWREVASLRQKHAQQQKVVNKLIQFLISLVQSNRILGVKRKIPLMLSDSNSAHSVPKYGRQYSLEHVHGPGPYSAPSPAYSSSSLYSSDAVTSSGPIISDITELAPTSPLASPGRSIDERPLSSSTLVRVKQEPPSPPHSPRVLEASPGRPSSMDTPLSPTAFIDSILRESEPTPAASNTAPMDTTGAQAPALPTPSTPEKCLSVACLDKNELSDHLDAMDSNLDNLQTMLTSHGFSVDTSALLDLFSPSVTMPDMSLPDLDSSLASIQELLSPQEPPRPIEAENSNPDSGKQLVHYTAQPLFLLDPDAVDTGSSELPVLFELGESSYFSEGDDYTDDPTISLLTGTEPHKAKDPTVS
# [4] = Luminescence Cell-Based Dose Response HTS to Identify Activators of Luciferase Translation or Activity in H4 […] Cells. [Related pubchem assays: 1829 (Project Summary), 1814 (Primary HTS)]; assay type: functional
# [5] = tested on: H4; assay: Luminescence Cell-Based Dose Response HTS to Identify Activators of 5'UTR Stem-Loop Driven Prion Protein mRNA Translation in H4 Neuroglioblastoma Cells. [Related pubchem assays: 1829 (Project Summary), 1814 (Primary HTS)]; assay type: functional; details: Homo sapiens
# [6] = Luminescence Cell-Based Dose Confirmation HTS to Identify Activators of 5'UTR Stem-Loop Driven Alpha-Synuclein mRNA Translation in H4 Neuroglioblastoma Cells. [Related pubchem assays: 1829 (Project Summary), 1814 (Primary HTS)]; assay type: functional
# [7] = molecular target: T4, Corticotropin-releasing factor receptor 2/Corticotropin-releasing factor-binding protein (Homo sapiens, UniProt P24387+Q13324); assay: Dose Response confirmation of uHTS hits for small molecule antagonists of the CRF-binding protein and CRF-R2 receptor complex.; assay type: functional; details: read-out: IC50_Mean
# T4 sequence (Q13324 whole entry): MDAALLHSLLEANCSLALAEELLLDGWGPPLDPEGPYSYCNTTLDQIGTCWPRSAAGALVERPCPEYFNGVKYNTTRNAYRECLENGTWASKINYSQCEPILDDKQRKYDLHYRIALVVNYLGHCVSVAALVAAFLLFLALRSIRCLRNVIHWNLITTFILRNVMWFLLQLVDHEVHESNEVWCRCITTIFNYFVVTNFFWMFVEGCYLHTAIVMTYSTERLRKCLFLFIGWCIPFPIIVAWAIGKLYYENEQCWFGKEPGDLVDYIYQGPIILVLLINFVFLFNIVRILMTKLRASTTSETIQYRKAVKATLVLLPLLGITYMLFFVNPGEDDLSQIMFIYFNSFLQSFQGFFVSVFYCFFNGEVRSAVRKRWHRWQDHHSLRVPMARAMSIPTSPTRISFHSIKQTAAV
# T4 sequence (P24387 whole entry): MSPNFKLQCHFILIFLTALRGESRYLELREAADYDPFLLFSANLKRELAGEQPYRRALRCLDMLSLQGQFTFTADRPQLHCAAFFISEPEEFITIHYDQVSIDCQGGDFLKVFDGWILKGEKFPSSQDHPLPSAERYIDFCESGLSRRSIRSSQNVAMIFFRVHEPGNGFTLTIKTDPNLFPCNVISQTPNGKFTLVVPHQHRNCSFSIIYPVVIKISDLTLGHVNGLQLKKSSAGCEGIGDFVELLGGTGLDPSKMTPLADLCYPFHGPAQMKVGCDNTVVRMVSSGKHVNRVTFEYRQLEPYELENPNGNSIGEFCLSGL
# [8] = tested on: INS1; assay: beta cell apoptosis inhibitors, cytokine rescue, dose response, luminescence, retest (AID 449756); assay type: functional, cell-based; details: Rattus norvegicus;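 further: cell death triggered by IL-1 beta plus TNF-alpha plus IFN-gamma mixture; protective hits raise ATP signal compared with cytokine alone wells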
# [9] = molecular target: T4, Corticotropin-releasing factor receptor 2/Corticotropin-releasing factor-binding protein; assay: activators of CRF receptor 2 with binding protein – uHTS hits, confirmation (AID 602473); assay type: functional; details: read-out: EC50_Mean
compound,measurement,setting,value
CCOc1ccccc1N1CCN(C(=O)c2ccc(-c3ccc(OC(C)=O)cc3)cc2)CC1,EC50,[1],58.4 µM (active)
same,AC50,[2],2.31 µM (active)
CC(=O)Nc1ccc(SCC(=O)N2CCN(S(=O)(=O)c3ccccc3)CC2)cc1,EC50,[3],> 195 µM (not active)
O=C(Nc1ccccc1NC(=O)c1csnn1)c1csnn1,EC50,[3],> 195 µM (not active)
CC(C)c1nnc(NC(=O)C2CCN(C(=O)c3ccco3)CC2)s1,EC50,[3],> 195 µM (not active)
COc1cc(OC)cc(C2C(C#N)=C(N)Oc3[nH]nc(-c4cccnc4)c32)c1 (centres undefined),EC50,[1],2.13 µM (active)
same,AC50,[2],18 µM (active)
C=CCn1c(SCC(=O)N2CCc3ccccc3C2)nc2sc(C)c(C)c2c1=O,EC50,[3],> 195 µM (not active)
Cc1cc(C)nc(N=C(N)Nc2ccc3c(c2)OCCO3)n1,EC50,[3],> 195 µM (not active)
CC(=O)c1ccc(NC(=O)c2cccc(S(=O)(=O)N3CCN(C)CC3)c2)cc1,EC50,[4],40.6 µM (active)
same,EC50,[5],20.7 µM (active)
same,EC50,[6],15.5 µM (active)
COc1ccc(-c2ccnc(SCC(=O)N3CCN(c4ccccc4)CC3)n2)cc1,IC50,[7],> 47.1 µM (inactive)
same,AC50,[8],> 260 µM (inactive)
same,EC50,[9],> 53 µM (inactive)
CC(=O)c1ccc(NC(=O)CCc2c(C)nc3ncnn3c2C)cc1,EC50,[4],8.11 µM (active)
same,EC50,[5],37.1 µM (active)
same,EC50,[6],73.6 µM (active)
O=C(c1ccc(Cl)cc1)n1cnc2ccccc21,EC50,[1],8.13 µM (active)
same,AC50,[2],7.49 µM (active)
Cc1cccc(N(C(=O)c2nsc(Cl)c2Cl)C(C(=O)NC2CCCC2)c2ccc(O)cc2)c1 (centres undefined),EC50,[4],1.09 µM (active)
same,EC50,[5],> 120 µM (not active)
same,EC50,[6],0.548 µM (active)
Cc1ccc(C(=O)N2CCCC(Nc3ccc(F)cc3)C2)cc1C (centres undefined),EC50,[3],> 195 µM (not active)
c1ccc(Cc2nnc3sc(-c4cccs4)nn23)cc1,EC50,[3],> 195 µM (not active)
COc1ccc(N2CCN(c3ccc(NC(=O)NN)cc3)CC2)cc1,EC50,[3],> 195 µM (not active)
Cc1nn(-c2ccccc2)c(C)c1NC(=O)COc1ccc(Br)cc1Cl,AC50,[8],34.2 µM (active)
O=C(Cn1nnc2ccccc21)NNC(=S)NC1CCCCC1,EC50,[3],> 195 µM (not active)
CCOC(=O)C1=C(c2ccccc2)OC(N)=C(C#N)C1C(C)C (centres undefined),EC50,[4],> 120 µM (not active)
same,EC50,[5],> 120 µM (not active)
same,EC50,[6],> 120 µM (not active)
Cc1ccc(NC(=O)Cn2nnc3ccccc32)cc1,EC50,[4],> 120 µM (not active)
same,EC50,[5],111 µM (active)
same,EC50,[6],17.5 µM (active)
CCOC(=O)Cc1n[nH]c2c1C(c1ccoc1)C(C#N)=C(N)O2 (centres undefined),EC50,[1],3.42 µM (active)
same,AC50,[2],18.4 µM (active)
COC(=O)c1ccc(Cn2nnc3c(O)nc(C4CCN(S(=O)(=O)c5ccc(F)cc5)CC4)nc32)cc1,EC50,[3],> 195 µM (not active)
CCOc1ccc(C(=O)OCC(=O)c2c(N)n(C)c(=O)n(C)c2=O)cc1OCC,EC50,[4],> 120 µM (not active)
same,EC50,[5],46.7 µM (inconclusive)
same,EC50,[6],> 120 µM (not active)
CCOC(=O)c1ccc(Nc2[nH]cnc3ncnc2-3)cc1,EC50,[3],> 195 µM (not active)
COc1cccc(OC(=O)CSc2nnc(-c3ccccc3Br)o2)c1,EC50,[1],5.7 µM (active)
same,AC50,[2],3.09 µM (active)
CNCC(O)CN(c1ccccc1)c1ccccc1 (centres undefined),EC50,[1],10.8 µM (active)
same,AC50,[2],34.3 µM (active)
COc1cc(/C=N/NC(=S)NC2CC3CC2C2C=CCC32)ccc1O (centres undefined),EC50,[4],69.7 µM (active)
same,EC50,[5],> 120 µM (not active)
same,EC50,[6],> 120 µM (not active)
COc1ccc(/C(O)=C\C=N\c2cc(C)on2)c(OC)c1,EC50,[3],> 195 µM (not active)
